Measurements reported in ChEMBL document CHEMBL1201862, “PubChem BioAssay data set” (2004).
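48-hour exposure; five concentrations; linearly interpolated endpoints. GI50 is the concentration that inhibits growth by half.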 Active and inactive are the calls of the source. Cut-off read from the data, not from the text of the source: active = GI50 up to about 1.1 µM and inactive = higher.

How the values were obtained:
Test in all cases: NCI tumour cell line growth inhibition, 48 h
[1] = tested on: CCRF-CEM
[2] = tested on: OVCAR-8
[3] = tested on: A549
[4] = tested on: PC-3
[5] = tested on: 786-0
[6] = tested on: SK-MEL-28
[7] = tested on: HCT-15
[8] = tested on: HOP-92
[9] = tested on: EKVX
[10] = tested on: HOP-62
[11] = tested on: COLO 205
[12] = tested on: UO-31
[13] = tested on: SF-539
[14] = tested on: RPMI-8226
[15] = tested on: U-251
[16] = tested on: OVCAR-5
[17] = tested on: SF-268
[18] = tested on: UACC-62
[19] = tested on: RXF 393
[20] = tested on: SNB-75

| SMILES | GI50 [1] | GI50 [2] | GI50 [3] | GI50 [4] | GI50 [5] | GI50 [6] | GI50 [7] [µM] | GI50 [8] | GI50 [9] | GI50 [10] | GI50 [11] | GI50 [12] | GI50 [13] | GI50 [14] | GI50 [15] | GI50 [16] | GI50 [17] | GI50 [18] | GI50 [19] | GI50 [20] |
| --- | --- | --- | --- | --- | --- | --- | --- | --- | --- | --- | --- | --- | --- | --- | --- | --- | --- | --- | --- | --- |
| O=C(O)c1c(CC(Cc2ccc3c(c2)CCC3)C(=O)O)ccc2c1CCC2 (stereo not given) | > 100 µM (inactive) | > 100 µM (inactive) | > 100 µM (inactive) | > 100 µM (inactive) | > 100 µM (inactive) | > 100 µM (inactive) | > 100 | > 100 µM (inactive) | > 100 µM (inactive) | > 100 µM (inactive) | > 100 µM (inactive) | > 100 µM (inactive) | > 100 µM (inactive) | > 100 µM (inactive) | > 100 µM (inactive) | > 100 µM (inactive) |  |  |  |  |
| COC1OC2COC(c3ccccc3)OC2C(O)C1OC(=S)c1ccccc1 (stereo not given) | 19.9 µM (inactive) | 67.8 µM (inactive) | 0.607 µM (active) | 18.3 µM (inactive) |  | 26.9 µM (inactive) | 28.4 | > 100 µM (inactive) | 19.5 µM (inactive) | 30.8 µM (inactive) | 16.7 µM (inactive) | 61.4 µM (inactive) | 35.2 µM (inactive) | 15.5 µM (inactive) | 0.188 µM (active) | > 100 µM (inactive) | > 100 µM (inactive) | 31 µM (inactive) | 41.4 µM (inactive) |  |
| O=C(CNc1cccc(Cl)c1)Nn1c(-c2ccccc2)nc2ccccc2c1=O | 1.58 µM (inactive) | 4.34 µM (inactive) | 19.7 µM (inactive) | 10.2 µM (inactive) | 2.77 µM (inactive) | 8.02 µM (inactive) |  | 2.31 µM (inactive) | 17.9 µM (inactive) | 14.1 µM (inactive) | 3.83 µM (inactive) | 17.2 µM (inactive) | 3.69 µM (inactive) | 10 µM (inactive) | 1.74 µM (inactive) | 18.6 µM (inactive) | 4.71 µM (inactive) | 1.69 µM (inactive) |  | 3.61 µM (inactive) |
| CCOC(=O)/C(C(=O)Nc1ccc(Cl)cc1)=C(/N)N1CCOCC1 | > 100 µM (inactive) | > 100 µM (inactive) | > 100 µM (inactive) | > 100 µM (inactive) | > 100 µM (inactive) | > 100 µM (inactive) | > 100 |  | > 100 µM (inactive) | > 100 µM (inactive) | > 100 µM (inactive) |  | > 100 µM (inactive) | > 100 µM (inactive) | > 100 µM (inactive) | > 100 µM (inactive) | > 100 µM (inactive) | > 100 µM (inactive) | > 100 µM (inactive) | > 100 µM (inactive) |
| C/C(=C1/N=C(c2ccccc2)OC1=O)c1ccccc1 | 33.4 µM (inactive) | > 100 µM (inactive) | > 100 µM (inactive) | > 100 µM (inactive) | > 100 µM (inactive) | > 100 µM (inactive) | 99.1 | > 100 µM (inactive) | > 100 µM (inactive) | > 100 µM (inactive) | > 100 µM (inactive) |  | 48.6 µM (inactive) | 23.3 µM (inactive) | > 100 µM (inactive) | > 100 µM (inactive) | > 100 µM (inactive) | > 100 µM (inactive) |  | > 100 µM (inactive) |
| Cc1cc(S(=O)(=O)Nc2nc3ccccc3nc2-c2cccc([N+](=O)[O-])c2)c(S)cc1Cl | 23.5 µM (inactive) | 34.5 µM (inactive) | 16.1 µM (inactive) | 19.7 µM (inactive) | 23.8 µM (inactive) | 15.8 µM (inactive) | 43 | 17.9 µM (inactive) | 22.1 µM (inactive) | 20.2 µM (inactive) | 16.3 µM (inactive) | 22.5 µM (inactive) | 22.8 µM (inactive) | 19.2 µM (inactive) | 16.9 µM (inactive) | 36.6 µM (inactive) | 25.9 µM (inactive) | 12.3 µM (inactive) | 33.7 µM (inactive) |  |
| COC(=O)[C@H]1C=NN[C@@H]1C(=O)N1[C@H]2CC3CC[C@@]2(CS1(=O)=O)C3(C)C | > 100 µM (inactive) | > 100 µM (inactive) | > 100 µM (inactive) | > 100 µM (inactive) |  | > 100 µM (inactive) | > 100 | > 100 µM (inactive) | > 100 µM (inactive) | > 100 µM (inactive) | > 100 µM (inactive) | > 100 µM (inactive) | > 100 µM (inactive) | > 100 µM (inactive) | > 100 µM (inactive) | > 100 µM (inactive) | > 100 µM (inactive) |  |  |  |
| O=C1C(C(O)(C(F)(F)Cl)C(F)(F)Cl)CCCC1C(O)(C(F)(F)Cl)C(F)(F)Cl (stereo not given) |  | > 10 µM (inactive) | > 10 µM (inactive) | > 10 µM (inactive) | > 10 µM (inactive) | > 10 µM (inactive) | > 10 | 5.11 µM (inactive) | > 10 µM (inactive) | > 10 µM (inactive) | > 10 µM (inactive) |  | > 10 µM (inactive) |  | > 10 µM (inactive) | > 10 µM (inactive) | > 10 µM (inactive) | > 10 µM (inactive) | > 10 µM (inactive) |  |
| CC(C)(Br)C(=O)/C=C/c1ccccc1 | 0.22 µM (active) | 2.13 µM (inactive) | 14.8 µM (inactive) | 7.69 µM (inactive) | 0.485 µM (active) | 14.9 µM (inactive) | 1.97 | 4.35 µM (inactive) | 7.62 µM (inactive) | 4.58 µM (inactive) | 8.24 µM (inactive) | 1.84 µM (inactive) | 8.13 µM (inactive) | 0.925 µM (active) | 6.95 µM (inactive) | 6.56 µM (inactive) | 10.6 µM (inactive) | 5.73 µM (inactive) |  | 16.1 µM (inactive) |
| CC1CN=C(N(C)C(=O)Nc2ccc(Cl)cc2)S1 (stereo not given) | > 10 µM (inactive) | 45.7 µM (inactive) | 16.7 µM (inactive) | 15.7 µM (inactive) | 19.5 µM (inactive) | 16.5 µM (inactive) | 0.841 | 29.9 µM (inactive) | 21.4 µM (inactive) | 48.2 µM (inactive) | 13.4 µM (inactive) | 10.1 µM (inactive) | 10.6 µM (inactive) | > 10 µM (inactive) | 13.3 µM (inactive) | 4.47 µM (inactive) | 41.5 µM (inactive) |  |  | > 100 µM (inactive) |
| CC(=O)N(C(C)=O)n1c(Cc2ccc(C)cc2)nn(C(C)=O)c1=O | > 100 µM (inactive) | > 100 µM (inactive) | > 100 µM (inactive) | > 100 µM (inactive) | > 100 µM (inactive) | > 100 µM (inactive) | > 100 | > 100 µM (inactive) | > 100 µM (inactive) | > 100 µM (inactive) | > 100 µM (inactive) | > 100 µM (inactive) | > 100 µM (inactive) | > 100 µM (inactive) | > 100 µM (inactive) | > 100 µM (inactive) | > 100 µM (inactive) | > 100 µM (inactive) |  | > 100 µM (inactive) |
| Nc1nc(N)c2ncn(Cc3ccccc3CO)c2n1 | 29.7 µM (inactive) | > 100 µM (inactive) | > 100 µM (inactive) | > 100 µM (inactive) | > 100 µM (inactive) | > 100 µM (inactive) | > 100 | > 100 µM (inactive) | > 100 µM (inactive) | > 100 µM (inactive) | > 100 µM (inactive) | > 100 µM (inactive) | > 100 µM (inactive) | > 100 µM (inactive) | > 100 µM (inactive) | > 100 µM (inactive) | > 100 µM (inactive) | > 100 µM (inactive) |  | > 100 µM (inactive) |
| CCOC(=O)NNC(=O)NCc1cccc(CNC(=O)NNC(=O)OCC)c1 | > 100 µM (inactive) | > 100 µM (inactive) | > 100 µM (inactive) | > 100 µM (inactive) | > 100 µM (inactive) | > 100 µM (inactive) | > 100 |  | > 100 µM (inactive) |  | > 100 µM (inactive) | > 100 µM (inactive) | > 100 µM (inactive) | > 100 µM (inactive) | > 100 µM (inactive) | > 100 µM (inactive) | > 100 µM (inactive) | > 100 µM (inactive) | > 100 µM (inactive) | > 100 µM (inactive) |
| CC(C)C(O)(C(=O)OCN1C(=O)C2C3C=CC(C2C1=O)C1C2C(=O)N(COC(=O)C(O)(C(C)C)C(C)O)C(=O)C2C31)C(C)O (stereo not given) | > 100 µM (inactive) | > 100 µM (inactive) | > 100 µM (inactive) | > 100 µM (inactive) | > 100 µM (inactive) | > 100 µM (inactive) | > 100 |  | > 100 µM (inactive) | > 100 µM (inactive) | > 100 µM (inactive) | > 100 µM (inactive) | > 100 µM (inactive) | > 100 µM (inactive) | > 100 µM (inactive) | > 100 µM (inactive) | > 100 µM (inactive) | > 100 µM (inactive) | > 100 µM (inactive) | 0.0275 µM (active) |
| CC1=CC(=O)c2ccc(C)cc2C1=O [CHIMAPHILIN] | 2.86 µM (inactive) | 10.6 µM (inactive) | 15.9 µM (inactive) | 11.6 µM (inactive) | 19.7 µM (inactive) | 6.82 µM (inactive) | 12.7 | 1.85 µM (inactive) | 7.1 µM (inactive) | 17.4 µM (inactive) | 16.3 µM (inactive) | 11.4 µM (inactive) | 15.6 µM (inactive) | 1.77 µM (inactive) | 11.5 µM (inactive) | 19.9 µM (inactive) | 14.3 µM (inactive) | 8.18 µM (inactive) |  | > 10 µM (inactive) |
